Target: T1, SIRT1 (Homo sapiens, UniProt Q96EB6)
T1 sequence (Q96EB6 1-747): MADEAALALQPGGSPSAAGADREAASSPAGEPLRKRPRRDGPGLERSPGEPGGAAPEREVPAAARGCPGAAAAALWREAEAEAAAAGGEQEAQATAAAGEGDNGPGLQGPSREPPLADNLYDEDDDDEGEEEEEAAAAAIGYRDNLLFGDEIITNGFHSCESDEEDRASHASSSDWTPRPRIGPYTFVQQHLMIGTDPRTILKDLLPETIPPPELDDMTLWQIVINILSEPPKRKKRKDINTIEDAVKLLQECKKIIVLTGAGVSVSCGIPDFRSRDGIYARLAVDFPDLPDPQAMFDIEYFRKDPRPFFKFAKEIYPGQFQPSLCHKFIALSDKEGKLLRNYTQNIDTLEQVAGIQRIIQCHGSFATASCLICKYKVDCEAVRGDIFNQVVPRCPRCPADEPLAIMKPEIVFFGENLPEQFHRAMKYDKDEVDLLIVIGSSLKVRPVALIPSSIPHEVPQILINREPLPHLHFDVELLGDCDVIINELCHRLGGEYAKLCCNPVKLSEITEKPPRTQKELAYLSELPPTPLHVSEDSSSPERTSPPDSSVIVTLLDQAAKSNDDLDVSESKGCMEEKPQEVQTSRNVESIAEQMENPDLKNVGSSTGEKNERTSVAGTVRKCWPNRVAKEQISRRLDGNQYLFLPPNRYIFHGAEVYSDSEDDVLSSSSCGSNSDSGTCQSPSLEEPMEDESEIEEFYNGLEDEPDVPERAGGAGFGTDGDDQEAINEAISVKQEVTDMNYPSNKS
Test: Trp mass spectrometry assay of SIRT1 activation (Ac-R-H-K-K(Ac)-W-NH2 peptide)
Type: biochemical
Details: Trp peptide 0.5 μM, 120 μM βNAD+, 10 nM SIRT1, 25 min at 25° C.; for Emax: 25 min, relative to control (100%), read-out: TRP MAX RESP (percent maximum fold activation)
How it was run: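 Mass spectrometry read-out (OAADPR formed, or deacetylated Trp peptide) after a 25 min NAD-dependent deacetylation by E. coli-expressed His-SIRT1, stopped with formic acid.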

Row | SMILES | Emax | TRP Activity (EC1.5, concentration of test compound that results in 150% activation of SIRT1)
1 | C[C@@H](NC(=O)c1ccc2c(n1)N(C(=O)Nc1cc(OCCO)ccn1)[C@H]1CCN2C1)C(F)(F)F [Example 132, (4S)—N5-(4-(2-hydroxyethoxy)pyridin-2-yl)-N7-((R)-1,1,1-trifluoropropan-2-yl)-3,4-dihydro-1,4-methanopyrido[2,3-b][1,4]diazepine-5,7(2H)-dicarboxamide] | > 150% | A (EC1.5<1 μM)
2 | O=C(NCC(F)(F)F)c1ccc2c(n1)N(C(=O)Nc1ccccn1)[C@H]1CC[N+]2([O-])C1 [Example 295, (4S)-5-(pyridin-2-ylcarbamoyl)-7-((2,2,2-trifluoroethyl)carbamoyl)-2,3,4,5-tetrahydro-1H-1,4-methanopyrido[2,3-b][1,4]diazepine 1-oxide] | > 150% | B (EC1.5 1-25 μM)
3 | Cc1nc(NC(=O)N2c3nc(C(=O)NCC4CC4)ccc3N3CC[C@H]2C3)ccc1F [Example 112, (4S)—N7-(cyclopropylmethyl)-N5-(5-fluoro-6-methylpyridin-2-yl)-3,4-dihydro-1,4-methanopyrido[2,3-b][1,4]diazepine-5,7(2H)-dicarboxamide] | > 150% | A (EC1.5<1 μM)
4 | O=C(O)c1ccc(NC(=O)N2c3nc(C(=O)NCC(F)(F)F)ccc3N3CC[C@H]2C3)nc1 [Example 213, 6-((4S)-7-((2,2,2-trifluoroethyl)carbamoyl)-2,3,4,5-tetrahydro-1,4-methanopyrido[2,3-b][1,4]diazepine-5-carboxamido)nicotinic acid] | > 150% | B (EC1.5 1-25 μM)
5 | Cc1cc2c(nc1C(=O)N[C@H](C)C(F)(F)F)N(C(=O)Nc1cc(OC[C@H](O)CO)ccn1)[C@H]1CCN2C1 [Example 291, (4S)—N5-(4-((R)-2,3-dihydroxypropoxy)pyridin-2-yl)-8-methyl-N7-((R)-1,1,1-trifluoropropan-2-yl)-3,4-dihydro-1,4-methanopyrido[2,3-b][1,4]diazepine-5,7(2H)-dicarboxamide] | < 150% | A (EC1.5<1 μM)
6 | CC(CO)NC(=O)c1ccc2c(n1)N(C(=O)Nc1ccccn1)[C@H]1CCN2C1 (stereo partly drawn) [Example 10, (4S)—N-7-(1-hydroxypropan-2-yl)-N-5-(pyridin-2-yl)-3,4-dihydro-1,4-methanopyrido [2,3-b] [1, 4] diazepine-5, 7(2H)-dicarboxamide] | > 150% | B (EC1.5 1-25 μM)
7 | COc1cc(NC(=O)N2c3nc(C(=O)NC4CC4(F)F)ccc3N3CC[C@H]2C3)ncn1 (single isomer, unassigned) [Example 298] | < 150% | B (EC1.5 1-25 μM)
8 | C[C@@H](NC(=O)c1ccc2c(n1)N(C(=O)Nc1ncc3[nH]ccc3n1)[C@H]1CCN2C1)C(F)(F)F [Example 147, (4S)—N5-(5H-pyrrolo[3,2-d]pyrimidin-2-yl)-N7-((R)-1,1,1-trifluoropropan-2-yl)-3,4-dihydro-1,4-methanopyrido[2,3-b][1,4]diazepine-5,7(2H)-dicarboxamide] | > 150% | A (EC1.5<1 μM)
